Data: patent US9206236B2, “Peptides for treating cancer” (Gene Signal International SA, priority 2010, dated 2015)
Entries after “also recorded” stand apart in the source; their conditions may differ. Where a SMILES comes first, the peptide text is derived from it. [ ]: non-standard residue; d: D form. pY = N[C@@H](Cc1ccc(OP(=O)(O)O)cc1)C(=O)O

Columns and labels:
NCI-H460 tumors = test: NCI-H460 tumor xenograft in nude mice, tumor volume (Example 3); format: in vivo
Protocol: H460 cell line has cytology compatible with human Non-Small Cell Lung Cancer (NSCL). Cells were grown in MEM medium containing 10% FCS at 37° C., 5% CO2 humidified atmosphere. The absence of mycoplasms was confirmed by using the PCR Mycoplasma Detection kit (Takara). All experiments were reviewed by the Genopole's institutional animal care and use committee and were performed in accordance with institutional guidelines for animal care. Female BALB/c nu/nu mice (n=30) were used at 5-6 weeks of age. The animals were housed in laminar air-flow cabinets under pathogen-free conditions with a 12 h light/12 h dark schedule, and fed autoclaved standard chow and water ad libitum. The NCI-H460 human NSCL cell line was obtained from American Type Culture Collection (ATCC) were grown in RPMI medium 1640 supplemented with 1 μM sodium pyruvate. Tumor cells (10^7 cells in 200 μl of HBSS) were injected subcutaneously into the right flanks of mice. After engraftment, tumor volume was measured by Vernier callipers, and calculated as described in Balsam A et al. (Balsari A et al. (2004) Eur J Cancer 40: 1275-1281). At tumor volume about 150 mm^3, animals were randomized, and separated into five groups of five animals. Control mice (group 1) were intraperitoneally injected with vehicle (10% DMSO in buffer saline) every day. GS-0 was dissolved in vehicle and intraperitoneally injected (group 2) every day (12 injections). GS-2 was dissolved in vehicle and intraperitoneally injected (group 3) every day (12 injections). Tumor volume and body weight were measured every other day over the treatment period (12 days). GS-2 as well as the control peptide GS-0 were solubilized in DMSO and the resulting solutions were diluted 10 times with phosphate buffer saline (PBS) to obtain a concentration of 1 mg of peptide/ml of 10% DMSO in PBS. At this concentration, all peptides were soluble in 10% DMSO.

[1] = target: T1, recruitment of the regulatory subunit (p85) of the enzyme PI-3K by IRS-1 (Homo sapiens, UniProt P27986); test: Recruitment of p85 of PI-3K by IRS-1 (IRS-1 immunoprecipitation, anti-p85 immunoblot) in HMEC; format: cell-based; details: final concentration of peptide 500 μg/ml
T1 construct: endogenous in cells; host or cells: human microvascular endothelial cells (HMEC)
Protocol: (§1) Human EC grown in EGM-2MV (80% confluence) were incubated with the peptides of the invention or vehicle for the indicated time, washed three times in cold PBS and directly lysed in 2 ml of ice-cold lysis buffer (10 mM Tris pH 7.5, 150 mM NaCl, 1 mM PMSF, 0.5 μg/ml leupeptin, 1 μg/ml pepstatin A, and 1 μg/ml aprotinin) by incubation for 30 min at 4° C. Cell lysate were spun at […] for 10 min, insoluble materials were discarded, and protein contents measured by Bradford assay of supernatants were adjusted. Cell lysate (1 ml) was precleared with 25 μl of protein G-plus agarose beads (Santa Cruz) for 30 min, and proteins were then immunoprecipitated by adding 2 μg of the indicated antibody and incubated for 1 hr. The immunocomplex was pulled down with protein G-plus agarose beads and the beads were washed three times with lysis buffer. The immunoprecipitates were separated by NuPAGE® 4-12% Bis-Tris gel electrophoresis under reducing conditions, transferred to PVDF membrane (Novex System, Invitrogen), and the membrane was blocked with 5% (w/v) non-fat milk in TBS containing 0.1% v/v Tween-20 for 1 hr.
As it is widely admitted that the tyrosine phosphorylation of IRS-1 leads to its association with the regulatory subunit (p85) of the enzyme PI-3K, and this event lead to important increases in the enzymatic activity of this later, we have investigated the influence of the tyrosine phosphorylated and non phosphorylated peptides onto the recruitment of the regulatory subunit (p85) of the enzyme PI-3K by IRS-1. For that, human microvascular endothelial cells (HMEC) were incubated with the tyrosine phosphorylated and non phosphorylated peptides (final concentration of peptide 500 μg/ml) followed by cells lysis and immuoprecipitation of the protein IRS-1. The immunoprecipitates were then resolved in SDS-PAGE, proteins were transferred to membranes, and the membranes were immunoblotted with an anti-p85 PI3K monoclonal antibody.

[2] = Solubility of peptides in 10% DMSO in PBS; format: physicochemical; details: 1 mg of peptide/ml of 10% DMSO in PBS
Protocol: GS-1 as well as the control peptide GS-0 were solubilized in DMSO and the resulting solutions were diluted 10 times with phosphate buffer saline (PBS) to obtain a concentration of 1 mg of peptide/ml of 10% DMSO in PBS. At this concentration, all peptides were soluble in 10% DMSO.
GS-2 as well as the control peptide GS-0 were solubilized in DMSO and the resulting solutions were diluted 10 times with phosphate buffer saline (PBS) to obtain a concentration of 1 mg of peptide/ml of 10% DMSO in PBS. At this concentration, all peptides were soluble in 10% DMSO.

mTOR = mTOR status in HMEC after incubation with peptides (anti-mTor antibody Ser2448); format: cell-based, human
Protocol: as §1
The status of mTOR in the HMEC following incubation with peptides GS-0 and GS-1 was investigated.

[3] = tested on: human microvascular endothelial cells (HMEC); test: In vitro angiogenesis assay (Matrigel tube formation); format: cell-based; details: 500 μg/ml final concentration of peptide, images at 18 h
Protocol: Angiogenesis of human microvascular endothelial cells (HMEC) was induced in vitro using a Matrigel assay described by Al-Mahmood et al (2009, JPET, 2009; 58:933). This method is based on the differentiation of endothelial cells to form capillary structures on a Matrigel Matrix. Matrigel is prepared the Engelbreth-Holm-Swarm (EHS) mouse tumor, which represents a complex mixture of basement membrane proteins including type IV collagen, entactin, proteo-heparan sulfate and other growth factors.
Briefly, 250 μl of Matrigel were transferred to each well of a 24-well culture plate and incubated at 37° C. for 30 min to allow for the matrix solution to solidify. HMEC grown in complete growth medium EGM-2MV were harvested by trypsin, suspended in the same growth medium and 500 μl containing 70 000 cells were added on top of the solidified Matrigel in each well and in the presence or absence of peptide. Cells were maintained in a humidified atmosphere air containing 5% CO2 at 37° C. for 18-24 hrs. Endothelial tube formation was observed and photographed under an inverted light microscope.
The designed tyrosine phosphorylated and non phosphorylated peptides were tested for their influence onto the in vitro angiogenesis. The results of the in vitro angiogenesis assay were presented in FIG. 1, using HMEC and 500 μg/ml final concentration of each peptide.

[4] = Body weight and toxicity of mice bearing NCI-H460 tumors (Example 3); format: in vivo
Protocol: All experiments were reviewed by the Genopole's institutional animal care and use committee and were performed in accordance with institutional guidelines for animal care. Female BALB/c nu/nu mice (n=30) were used at 5-6 weeks of age. The animals were housed in laminar air-flow cabinets under pathogen-free conditions with a 12 h light/12 h dark schedule, and fed autoclaved standard chow and water ad libitum. […] Tumor cells (10^7 cells in 200 μl of HBSS) were injected subcutaneously into the right flanks of mice. […] At tumor volume about 150 mm^3, animals were randomized, and separated into five groups of five animals. Control mice (group 1) were intraperitoneally injected with vehicle (10% DMSO in buffer saline) every day. GS-0 was dissolved in vehicle and intraperitoneally injected (group 2) every day (12 injections). GS-2 was dissolved in vehicle and intraperitoneally injected (group 3) every day (12 injections). Tumor volume and body weight were measured every other day over the treatment period (12 days).

T1 sequence (P27986 whole entry): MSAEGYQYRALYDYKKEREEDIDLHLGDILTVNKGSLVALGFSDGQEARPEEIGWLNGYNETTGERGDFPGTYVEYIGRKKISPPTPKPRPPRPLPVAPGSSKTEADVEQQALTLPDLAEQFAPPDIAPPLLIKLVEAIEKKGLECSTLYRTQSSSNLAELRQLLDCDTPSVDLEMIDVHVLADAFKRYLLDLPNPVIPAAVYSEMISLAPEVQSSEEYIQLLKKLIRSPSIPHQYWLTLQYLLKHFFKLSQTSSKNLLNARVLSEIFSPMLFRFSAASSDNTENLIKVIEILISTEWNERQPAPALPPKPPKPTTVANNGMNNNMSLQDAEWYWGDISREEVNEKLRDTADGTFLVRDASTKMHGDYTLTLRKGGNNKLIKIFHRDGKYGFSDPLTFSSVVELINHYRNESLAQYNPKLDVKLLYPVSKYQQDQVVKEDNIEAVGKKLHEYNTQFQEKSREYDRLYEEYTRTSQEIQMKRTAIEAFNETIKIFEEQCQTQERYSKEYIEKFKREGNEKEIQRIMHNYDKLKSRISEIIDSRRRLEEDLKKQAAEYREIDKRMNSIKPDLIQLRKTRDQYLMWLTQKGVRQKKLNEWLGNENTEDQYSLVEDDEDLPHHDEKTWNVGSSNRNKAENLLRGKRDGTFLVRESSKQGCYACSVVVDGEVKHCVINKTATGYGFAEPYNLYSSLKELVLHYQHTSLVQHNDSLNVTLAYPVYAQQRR

CSCC[C@H](NC(=O)[C@H](CC(N)=O)NC(=O)[C@H](CCSC)NC(=O)[C@H](Cc1ccc(OP(=O)(O)O)cc1)NC(=O)[C@H](CCC(=O)O)NC(C)=O)C(=O)N[C@@H](CC(=O)O)C(N)=O [GS-2, EpYMNMD] (Ac-E[pY]MNMD-NH2)
influence on the in vivo growth of the tumor NCI-H460 (in words) (NCI-H460 tumors; 8 mg/kg i.p. daily for 12 days): highly significant and potent influence; also recorded: statistically significant and potent anti-tumoral activity
mean tumor volume at the end of treatment (NCI-H460 tumors; 8 mg/kg i.p. daily for 12 days, n=5): 297.28 ± 142.67 mm^3
Mean tumor volume D1 (NCI-H460 tumors; Table 4, 8 mg/kg i.p. daily, day 1): 124 mm³
Mean tumor volume D3 (NCI-H460 tumors; Table 4, 8 mg/kg i.p. daily, day 3): 129 mm³
Mean tumor volume D5 (NCI-H460 tumors; Table 4, 8 mg/kg i.p. daily, day 5): 163 mm³
Mean tumor volume D7 (NCI-H460 tumors; Table 4, 8 mg/kg i.p. daily, day 7): 174 mm³
Mean tumor volume D9 (NCI-H460 tumors; Table 4, 8 mg/kg i.p. daily, day 9): 254 mm³
Mean tumor volume D11 (NCI-H460 tumors; Table 4, 8 mg/kg i.p. daily, day 11): 297 mm³
Mean tumor volume D13 (NCI-H460 tumors; Table 4, 8 mg/kg i.p. daily, day 13): 297 mm³
influence onto the recruitment of the regulatory subunit (p85) of PI3K by IRS-1 [1]: moderate inhibitory effects
solubility in 10% DMSO [2]: soluble
amounts of mTOR in HMEC relative to vehicle (mTOR): much less amounts of mTOR
in vitro angiogenesis-inhibitory activity [3]: have in vitro angiogenesis-inhibitory activities
toxicity and body weight loss during treatment ([4]; 8 mg/kg intraperitoneally every day, 12 injections): No toxicity and no body weight loss
Mean body weight D1 ([4]; Table 3, 8 mg/kg i.p. daily, day 1, in g): 22.59
Mean body weight D3 ([4]; Table 3, 8 mg/kg i.p. daily, day 3, in g): 22.32
Mean body weight D5 ([4]; Table 3, 8 mg/kg i.p. daily, day 5, in g): 22.78
Mean body weight D7 ([4]; Table 3, 8 mg/kg i.p. daily, day 7, in g): 23.10
Mean body weight D9 ([4]; Table 3, 8 mg/kg i.p. daily, day 9, in g): 23.00
Mean body weight D11 ([4]; Table 3, 8 mg/kg i.p. daily, day 11, in g): 23.51
Mean body weight D13 ([4]; Table 3, 8 mg/kg i.p. daily, day 13, in g): 23.05
